Patent US6869965B2, “Antimicrobial quinolone derivatives and use of the same to treat bacterial infections” (Pharmacia & Upjohn Company, priority 2000, dated 2005)

How the values were obtained:
Format in all cases: cell-based
E. faecalis UC9217 = assay: Antibacterial activity, MIC; conditions: strain UC9217
S. pneumoniae UC9912 = assay: Antibacterial activity, MIC; conditions: strain UC9912
S. aureus UC9218 = assay: Antibacterial activity, MIC; conditions: strain UC9218
M. catarrhalis UC30607 = assay: Antibacterial activity, MIC; conditions: strain UC30607
E. coli UC6674 = assay: Antibacterial activity, MIC; conditions: strain UC6674
H. influenzae UC30063 = assay: Antibacterial activity, MIC; conditions: strain UC30063
[1] = test system: E. faecalis, S. aureus, S. pneumoniae, H. influenzae, M. catarrhalis, E. coli; assay: Antibacterial activity, overall statement on Table 1; conditions: summary in words of Table 1

SMILES | MIC E. faecalis UC9217 (E. faecalis UC9217) | MIC S. pneumoniae UC9912 (S. pneumoniae UC9912) | MIC S. aureus UC9218 (S. aureus UC9218) | MIC M. catarrhalis UC30607 (M. catarrhalis UC30607) | MIC E. coli UC6674 (E. coli UC6674) | MIC H. influenzae UC30063 (H. influenzae UC30063) | antibacterial activity [1]
CC(=O)NC[C@H]1CN(c2ccc(N3CCN(c4c(F)cc5c(=O)c(C(=O)O)cn6c5c4OCC6C)CC3)c(F)c2)C(=O)O1 (stereo partly shown) [Example 2] | 0.5 :g/mL | 0.25 :g/mL | 1 :g/mL | 2 :g/mL | 16 :g/mL | 4 :g/mL | –
CC(=O)NC[C@H]1CN(c2ccc(N3CCN(c4cc5c(cc4F)c(=O)c(C(=O)O)cn5C4CC4)CC3)c(F)c2)C(=O)O1 [Example 1] | 0.25 :g/mL | 0.125 :g/mL | 0.5 :g/mL | 1 :g/mL | 16 :g/mL | 8 :g/mL | –
CC(=O)NC[C@H]1CN(c2ccc(-c3cc4c(cc3F)c(=O)c(C(=O)O)cn4C3CC3)c(F)c2)C(=O)O1 [Example 3, 7-(4{(5S)-5-[(Acetylamino)methyl]2-oxo-1,3-oxazolidin-3-yl}-2-fluorophenyl)-1-cyclopropyl-6-fluoro-4-oxo-1,4-dihydro-3-quinolinecarboxylic acid] | 8 :g/mL | 4 :g/mL | 2 :g/mL | 4 :g/mL | 4 :g/mL | 0.5 :g/mL | potent antibacterial activity
